From publication PMC11762413 (2025)
Blank lines part the entries; values can stand above or below the compound they belong to.

Assays:
[1] = tested on: VAN-specific aptamer (Apt), 4trunc, immobilised on gold (DNA, aptamer) CGAGGGTACCGCAATAGTACTTATTGTTCGCCTATTGTGGGTCGG; experiment: SPR kinetics (koff/kon); details: 100 mM Na+, 100 mM K+, 10 mM Mg2+; 10 mM TRIS pH 7.4; aptamer immobilised on gold chip; VAN 0.05–10 µM; 1:1 model
[2] = tested on: VAN-specific aptamer (Apt), 4trunc, in solution (DNA, aptamer) CGAGGGTACCGCAATAGTACTTATTGTTCGCCTATTGTGGGTCGG; experiment: ITC; details: 100 mM Na+, 100 mM K+, 10 mM Mg2+; 10 mM TRIS pH 7.4, 25 °C; 10 µM aptamer titrated with 150 µM VAN; independent sites
[3] = tested on: VAN-specific aptamer (Apt), 4trunc, immobilised on gold (DNA, aptamer) CGAGGGTACCGCAATAGTACTTATTGTTCGCCTATTGTGGGTCGG; experiment: EIS aptasensor selectivity; details: 100 mM Na+, 100 mM K+, 10 mM Mg2+, 10 mM TRIS pH 7.4, room temperature, 45 min, tested at 1 µM

KD [1]: 18.31 ± 1.15 µM | KD [2]: 13.35 ± 2.74 µM
Structure (SMILES): CN[C@H](CC(C)C)C(=O)N[C@H]1C(=O)N[C@@H](CC(N)=O)C(=O)N[C@H]2C(=O)N[C@H]3C(=O)N[C@H](C(=O)N[C@H](C(=O)O)c4cc(O)cc(O)c4-c4cc3ccc4O)[C@H](O)c3ccc(c(Cl)c3)Oc3cc2cc(c3O[C@@H]2O[C@H](CO)[C@@H](O)[C@H](O)[C@H]2O[C@H]2C[C@](C)(N)[C@H](O)[C@H](C)O2)Oc2ccc(cc2Cl)[C@H]1O

binding ([3]; 10.65% of VAN signal): no
Structure (SMILES): OC[C@H]1OC(O)[C@H](O)[C@@H](O)[C@@H]1O (stereo partly shown)

binding ([3]; 9.78% of VAN signal): no
Structure (SMILES): OC[C@H]1O[C@@H](O[C@H]2[C@H](O)[C@@H](O)C(O)O[C@@H]2CO)[C@H](O)[C@@H](O)[C@H]1O (stereo partly shown)
